# Assay results reported in the supplement of paper PMC12463676, “Small-molecule dissolution of stress granules by redox modulation benefits ALS models” (Nature Chemical Biology, 2025).
# Assays:
# lipoamide = compound: NC(=O)CCCCC1CCSS1 [lipoamide]; experiment: thermal stability z-score vs DMSO; higher = more thermally stabilized by treatment; settings: HeLa, lipoamide concentration 100 µM
# Description: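 Cellular thermal proteome profiling in HeLa cells. Cells were treated with 100 µM lipoamide for 1 h, with or without 1 mM arsenate for a further 1 h, then heated to ten temperatures (37-66.3 °C), and soluble protein was quantified by TMT mass spectrometry relative to 0.1% DMSO controls. The thermal stability score (sum of log2 fold changes minus the abundance score) was transformed to a z-score; mean of n = 3 experiments.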
# potassium arsenate = compound: O=[As]([O-])(O)O.[K+] [potassium arsenate]; experiment: as above; settings: HeLa; arsenate concentration 1 mM
# Description: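 Cellular thermal proteome profiling in HeLa cells treated with 1 mM arsenate for 1 h (DMSO pretreatment), heated to ten temperatures (37-66.3 °C). Soluble protein was quantified by TMT mass spectrometry relative to DMSO controls; the thermal stability score was transformed to a z-score; mean of n = 3 experiments.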
# [1] = arsenate co-treatment: 1 mM arsenate 1 h
# 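Also: each temperature applied for 3 min, abundance score taken as mean log2 fold change at the two lowest temperatures, z-score obtained by mean subtraction and division by SD.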
# UniProt O43290, sequence (O43290 whole entry): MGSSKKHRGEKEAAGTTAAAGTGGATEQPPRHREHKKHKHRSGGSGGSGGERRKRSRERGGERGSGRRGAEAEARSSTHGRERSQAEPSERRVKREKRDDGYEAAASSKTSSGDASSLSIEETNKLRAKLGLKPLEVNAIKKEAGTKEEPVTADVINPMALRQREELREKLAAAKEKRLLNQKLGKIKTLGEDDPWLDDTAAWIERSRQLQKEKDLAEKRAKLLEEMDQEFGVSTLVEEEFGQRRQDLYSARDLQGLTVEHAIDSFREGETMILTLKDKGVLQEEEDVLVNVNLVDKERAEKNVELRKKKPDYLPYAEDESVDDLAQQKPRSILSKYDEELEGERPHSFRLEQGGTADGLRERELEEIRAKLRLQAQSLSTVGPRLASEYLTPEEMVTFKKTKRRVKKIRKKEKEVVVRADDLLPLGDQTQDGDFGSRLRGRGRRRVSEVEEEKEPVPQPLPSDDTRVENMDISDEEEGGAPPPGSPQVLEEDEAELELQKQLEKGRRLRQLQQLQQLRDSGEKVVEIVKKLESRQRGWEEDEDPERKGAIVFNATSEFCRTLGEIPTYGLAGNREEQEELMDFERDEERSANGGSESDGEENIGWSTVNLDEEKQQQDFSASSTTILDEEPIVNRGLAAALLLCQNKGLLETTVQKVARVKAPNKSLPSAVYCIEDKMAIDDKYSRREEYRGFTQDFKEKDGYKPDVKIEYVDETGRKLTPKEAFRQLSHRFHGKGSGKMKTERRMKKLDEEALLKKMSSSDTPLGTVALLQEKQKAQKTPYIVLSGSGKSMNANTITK
# UniProt Q9HCD5, sequence (Q9HCD5 whole entry): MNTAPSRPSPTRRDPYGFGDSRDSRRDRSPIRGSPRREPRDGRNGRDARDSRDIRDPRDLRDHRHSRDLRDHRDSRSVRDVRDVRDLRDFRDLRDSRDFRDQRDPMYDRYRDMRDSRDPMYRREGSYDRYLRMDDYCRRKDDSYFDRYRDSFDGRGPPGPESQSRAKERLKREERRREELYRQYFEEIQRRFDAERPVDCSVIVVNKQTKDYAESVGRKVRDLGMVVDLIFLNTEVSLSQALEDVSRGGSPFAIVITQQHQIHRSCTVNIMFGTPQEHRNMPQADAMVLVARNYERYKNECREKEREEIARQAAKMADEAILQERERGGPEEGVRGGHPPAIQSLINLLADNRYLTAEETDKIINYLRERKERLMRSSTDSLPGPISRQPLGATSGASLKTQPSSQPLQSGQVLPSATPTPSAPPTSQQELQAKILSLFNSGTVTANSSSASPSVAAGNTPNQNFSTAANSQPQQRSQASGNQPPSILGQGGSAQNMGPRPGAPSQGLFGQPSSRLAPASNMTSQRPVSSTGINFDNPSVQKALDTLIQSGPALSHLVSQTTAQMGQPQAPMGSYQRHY
# UniProt P36776, sequence (P36776 whole entry): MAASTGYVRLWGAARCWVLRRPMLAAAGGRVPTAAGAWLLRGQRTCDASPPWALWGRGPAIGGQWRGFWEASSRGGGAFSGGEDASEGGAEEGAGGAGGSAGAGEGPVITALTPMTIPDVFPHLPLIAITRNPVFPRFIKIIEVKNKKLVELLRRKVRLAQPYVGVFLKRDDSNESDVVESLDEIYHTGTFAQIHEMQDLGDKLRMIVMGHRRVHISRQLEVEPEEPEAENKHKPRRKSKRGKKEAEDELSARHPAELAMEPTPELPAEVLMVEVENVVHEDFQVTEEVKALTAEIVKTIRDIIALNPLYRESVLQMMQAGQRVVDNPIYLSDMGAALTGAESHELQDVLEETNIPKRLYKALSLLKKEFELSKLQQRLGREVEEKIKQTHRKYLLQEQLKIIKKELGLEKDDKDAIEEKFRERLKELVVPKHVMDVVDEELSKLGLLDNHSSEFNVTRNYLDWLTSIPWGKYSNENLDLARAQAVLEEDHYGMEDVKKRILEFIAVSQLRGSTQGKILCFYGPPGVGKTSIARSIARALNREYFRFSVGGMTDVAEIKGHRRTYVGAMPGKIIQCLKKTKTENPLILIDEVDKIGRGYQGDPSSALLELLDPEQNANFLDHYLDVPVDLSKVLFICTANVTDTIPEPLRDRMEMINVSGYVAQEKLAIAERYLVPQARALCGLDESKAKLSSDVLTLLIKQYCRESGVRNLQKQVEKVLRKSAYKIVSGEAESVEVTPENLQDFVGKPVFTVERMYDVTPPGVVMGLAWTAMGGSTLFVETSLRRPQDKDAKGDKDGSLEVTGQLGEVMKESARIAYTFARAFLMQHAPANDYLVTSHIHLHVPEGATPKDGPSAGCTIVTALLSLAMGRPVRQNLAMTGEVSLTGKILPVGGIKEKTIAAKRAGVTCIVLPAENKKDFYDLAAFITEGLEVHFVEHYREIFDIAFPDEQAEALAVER
# UniProt Q9HAT2, sequence (Q9HAT2 whole entry): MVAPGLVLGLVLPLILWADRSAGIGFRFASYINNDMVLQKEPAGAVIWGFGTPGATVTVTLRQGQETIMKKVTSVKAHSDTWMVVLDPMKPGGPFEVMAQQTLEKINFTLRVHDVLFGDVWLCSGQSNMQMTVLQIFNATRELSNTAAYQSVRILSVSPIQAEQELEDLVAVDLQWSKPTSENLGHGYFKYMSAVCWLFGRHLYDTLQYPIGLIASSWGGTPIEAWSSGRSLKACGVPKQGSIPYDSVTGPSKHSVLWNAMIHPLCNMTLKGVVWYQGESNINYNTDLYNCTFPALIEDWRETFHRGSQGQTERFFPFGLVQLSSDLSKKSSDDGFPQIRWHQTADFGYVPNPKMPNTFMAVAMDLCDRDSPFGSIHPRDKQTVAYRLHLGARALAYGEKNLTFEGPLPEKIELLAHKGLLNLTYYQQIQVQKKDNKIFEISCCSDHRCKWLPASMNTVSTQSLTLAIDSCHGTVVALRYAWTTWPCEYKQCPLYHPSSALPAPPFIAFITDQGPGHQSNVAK
# UniProt Q01650, sequence (Q01650 whole entry): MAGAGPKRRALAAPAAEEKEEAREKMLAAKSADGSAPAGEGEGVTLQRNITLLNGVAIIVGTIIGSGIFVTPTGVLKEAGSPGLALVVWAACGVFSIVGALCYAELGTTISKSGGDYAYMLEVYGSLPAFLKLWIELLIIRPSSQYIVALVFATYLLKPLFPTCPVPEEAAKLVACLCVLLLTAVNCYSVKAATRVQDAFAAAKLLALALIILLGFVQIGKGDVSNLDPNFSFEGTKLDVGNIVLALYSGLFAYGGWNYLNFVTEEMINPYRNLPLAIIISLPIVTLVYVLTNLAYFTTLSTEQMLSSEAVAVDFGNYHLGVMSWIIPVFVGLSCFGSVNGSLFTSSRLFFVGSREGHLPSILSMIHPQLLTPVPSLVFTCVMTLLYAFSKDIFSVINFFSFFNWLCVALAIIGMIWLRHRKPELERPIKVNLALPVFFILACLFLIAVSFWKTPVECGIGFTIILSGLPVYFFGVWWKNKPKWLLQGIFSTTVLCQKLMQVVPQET
# UniProt Q9UBU8, sequence (Q9UBU8 whole entry): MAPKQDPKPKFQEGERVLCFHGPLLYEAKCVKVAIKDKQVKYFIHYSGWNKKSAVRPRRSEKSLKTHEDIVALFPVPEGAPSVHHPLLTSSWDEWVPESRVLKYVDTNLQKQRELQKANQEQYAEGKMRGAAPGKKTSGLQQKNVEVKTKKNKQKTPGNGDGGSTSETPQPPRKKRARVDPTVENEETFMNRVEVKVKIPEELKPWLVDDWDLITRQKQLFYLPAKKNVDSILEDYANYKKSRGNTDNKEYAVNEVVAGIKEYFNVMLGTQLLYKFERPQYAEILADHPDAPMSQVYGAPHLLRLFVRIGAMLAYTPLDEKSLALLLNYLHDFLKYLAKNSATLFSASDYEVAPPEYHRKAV
# UniProt Q9NW68, sequence (Q9NW68 whole entry): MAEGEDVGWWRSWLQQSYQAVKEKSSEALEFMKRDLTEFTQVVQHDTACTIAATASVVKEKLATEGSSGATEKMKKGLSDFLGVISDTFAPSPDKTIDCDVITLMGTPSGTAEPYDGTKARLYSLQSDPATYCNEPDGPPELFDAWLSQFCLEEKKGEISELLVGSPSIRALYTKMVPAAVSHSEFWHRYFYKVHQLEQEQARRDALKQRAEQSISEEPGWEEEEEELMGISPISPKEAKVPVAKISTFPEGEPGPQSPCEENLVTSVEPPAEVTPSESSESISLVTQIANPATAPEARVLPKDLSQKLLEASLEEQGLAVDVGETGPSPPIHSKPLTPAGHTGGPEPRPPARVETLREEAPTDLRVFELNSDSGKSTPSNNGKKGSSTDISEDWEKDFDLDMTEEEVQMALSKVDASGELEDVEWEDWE
# UniProt Q9UJX6, sequence (Q9UJX6 whole entry): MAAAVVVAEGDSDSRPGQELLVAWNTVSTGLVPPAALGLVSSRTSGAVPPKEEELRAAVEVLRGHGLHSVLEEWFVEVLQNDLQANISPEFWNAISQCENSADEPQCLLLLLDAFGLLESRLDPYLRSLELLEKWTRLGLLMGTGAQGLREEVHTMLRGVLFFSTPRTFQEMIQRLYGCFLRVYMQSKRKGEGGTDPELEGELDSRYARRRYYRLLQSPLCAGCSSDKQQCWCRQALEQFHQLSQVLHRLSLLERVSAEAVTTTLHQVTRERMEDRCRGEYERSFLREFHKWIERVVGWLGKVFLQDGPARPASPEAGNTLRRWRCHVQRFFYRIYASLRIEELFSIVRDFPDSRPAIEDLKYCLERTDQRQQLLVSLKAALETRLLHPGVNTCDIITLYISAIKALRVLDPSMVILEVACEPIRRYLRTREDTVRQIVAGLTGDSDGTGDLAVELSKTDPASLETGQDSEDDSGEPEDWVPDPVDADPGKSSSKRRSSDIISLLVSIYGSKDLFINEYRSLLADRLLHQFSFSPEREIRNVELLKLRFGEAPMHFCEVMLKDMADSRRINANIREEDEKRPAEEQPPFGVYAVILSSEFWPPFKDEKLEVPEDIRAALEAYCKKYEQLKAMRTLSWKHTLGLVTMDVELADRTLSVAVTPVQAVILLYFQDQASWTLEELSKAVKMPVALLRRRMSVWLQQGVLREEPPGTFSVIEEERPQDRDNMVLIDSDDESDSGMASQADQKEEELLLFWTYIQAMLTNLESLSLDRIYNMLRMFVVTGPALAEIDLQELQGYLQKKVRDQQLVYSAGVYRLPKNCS
target,measurement,setting,value
SDF4 (UniProt Q9BRK5),thermal stability z-score,lipoamide; [1],-1.8
same,thermal stability z-score,lipoamide; arsenate co-treatment: none,-1.61
same,thermal stability z-score,potassium arsenate,0.389
LONP1 (UniProt P36776),thermal stability z-score,lipoamide; [1],-0.482
same,thermal stability z-score,lipoamide; arsenate co-treatment: none,-0.277
same,thermal stability z-score,potassium arsenate,-0.763
CCDC137 (UniProt Q6PK04),thermal stability z-score,lipoamide; [1],-0.531
same,thermal stability z-score,lipoamide; arsenate co-treatment: none,-0.941
same,thermal stability z-score,potassium arsenate,-1.66
ATRIP (UniProt Q8WXE1),thermal stability z-score,lipoamide; [1],0.275
same,thermal stability z-score,lipoamide; arsenate co-treatment: none,-0.148
same,thermal stability z-score,potassium arsenate,-0.137
BSDC1 (UniProt Q9NW68),thermal stability z-score,lipoamide; [1],-0.585
same,thermal stability z-score,lipoamide; arsenate co-treatment: none,-0.361
same,thermal stability z-score,potassium arsenate,-0.209
UBE2K (UniProt P61086),thermal stability z-score,lipoamide; [1],0.398
same,thermal stability z-score,lipoamide; arsenate co-treatment: none,-0.0311
same,thermal stability z-score,potassium arsenate,-0.201
TSPAN4 (UniProt O14817),thermal stability z-score,lipoamide; [1],-0.0469
same,thermal stability z-score,lipoamide; arsenate co-treatment: none,0.15
same,thermal stability z-score,potassium arsenate,0.304
TOMM40 (UniProt O96008),thermal stability z-score,lipoamide; [1],0.59
same,thermal stability z-score,lipoamide; arsenate co-treatment: none,0.961
same,thermal stability z-score,potassium arsenate,1.15
DDX20 (UniProt Q9UHI6),thermal stability z-score,lipoamide; [1],-0.457
same,thermal stability z-score,lipoamide; arsenate co-treatment: none,-0.527
same,thermal stability z-score,potassium arsenate,-0.763
EFL1 (UniProt Q7Z2Z2),thermal stability z-score,lipoamide; [1],-0.245
same,thermal stability z-score,lipoamide; arsenate co-treatment: none,0.0406
same,thermal stability z-score,potassium arsenate,0.402
ABL2 (UniProt P42684),thermal stability z-score,lipoamide; [1],-0.0711
same,thermal stability z-score,lipoamide; arsenate co-treatment: none,-0.109
same,thermal stability z-score,potassium arsenate,-0.0185
PLOD3 (UniProt O60568),thermal stability z-score,lipoamide; [1],-5.29
same,thermal stability z-score,lipoamide; arsenate co-treatment: none,-4.8
same,thermal stability z-score,potassium arsenate,0.333
EXOSC10 (UniProt Q01780),thermal stability z-score,lipoamide; [1],0.0236
same,thermal stability z-score,lipoamide; arsenate co-treatment: none,-0.0314
same,thermal stability z-score,potassium arsenate,-0.437
COBL (UniProt O75128),thermal stability z-score,lipoamide; [1],0.182
same,thermal stability z-score,lipoamide; arsenate co-treatment: none,0.154
same,thermal stability z-score,potassium arsenate,-0.0126
METTL7A (UniProt Q9H8H3),thermal stability z-score,lipoamide; [1],2.84
same,thermal stability z-score,lipoamide; arsenate co-treatment: none,2.54
same,thermal stability z-score,potassium arsenate,0.632
JMJD4 (UniProt Q9H9V9),thermal stability z-score,lipoamide; [1],0.073
same,thermal stability z-score,lipoamide; arsenate co-treatment: none,0.027
same,thermal stability z-score,potassium arsenate,0.0203
SORCS2 (UniProt Q96PQ0),thermal stability z-score,lipoamide; [1],-0.156
same,thermal stability z-score,lipoamide; arsenate co-treatment: none,-0.45
same,thermal stability z-score,potassium arsenate,-0.319
STAU1 (UniProt O95793),thermal stability z-score,lipoamide; [1],-1.06
same,thermal stability z-score,lipoamide; arsenate co-treatment: none,-0.199
same,thermal stability z-score,potassium arsenate,-0.275
CYFIP1 (UniProt Q7L576),thermal stability z-score,lipoamide; [1],-0.422
same,thermal stability z-score,lipoamide; arsenate co-treatment: none,-0.325
same,thermal stability z-score,potassium arsenate,-1.67
NUCB1 (UniProt Q02818),thermal stability z-score,lipoamide; [1],-0.169
same,thermal stability z-score,lipoamide; arsenate co-treatment: none,-0.102
same,thermal stability z-score,potassium arsenate,-0.222
ANAPC2 (UniProt Q9UJX6),thermal stability z-score,lipoamide; [1],-0.312
same,thermal stability z-score,lipoamide; arsenate co-treatment: none,-0.0871
same,thermal stability z-score,potassium arsenate,0.093
EPS15L1 (UniProt Q9UBC2),thermal stability z-score,lipoamide; [1],0.0401
same,thermal stability z-score,lipoamide; arsenate co-treatment: none,0.0523
same,thermal stability z-score,potassium arsenate,0.4
XRCC5 (UniProt P13010),thermal stability z-score,lipoamide; [1],-0.555
same,thermal stability z-score,lipoamide; arsenate co-treatment: none,0.584
same,thermal stability z-score,potassium arsenate,-0.403
COX11 (UniProt Q9Y6N1),thermal stability z-score,lipoamide; [1],0.0437
same,thermal stability z-score,lipoamide; arsenate co-treatment: none,-0.0617
same,thermal stability z-score,potassium arsenate,0.0514
SART1 (UniProt O43290),thermal stability z-score,lipoamide; [1],0.898
same,thermal stability z-score,lipoamide; arsenate co-treatment: none,0.374
same,thermal stability z-score,potassium arsenate,-2.05
SIAE (UniProt Q9HAT2),thermal stability z-score,lipoamide; [1],0.527
same,thermal stability z-score,lipoamide; arsenate co-treatment: none,0.537
same,thermal stability z-score,potassium arsenate,0.741
ASPHD1 (UniProt Q5U4P2),thermal stability z-score,lipoamide; [1],-0.334
same,thermal stability z-score,lipoamide; arsenate co-treatment: none,0.214
same,thermal stability z-score,potassium arsenate,-0.276
FARP2 (UniProt O94887),thermal stability z-score,lipoamide; [1],-0.32
same,thermal stability z-score,lipoamide; arsenate co-treatment: none,-0.266
same,thermal stability z-score,potassium arsenate,-0.235
BZW1 (UniProt Q7L1Q6),thermal stability z-score,lipoamide; [1],0.452
same,thermal stability z-score,lipoamide; arsenate co-treatment: none,0.578
same,thermal stability z-score,potassium arsenate,0.483
TBC1D5 (UniProt Q92609),thermal stability z-score,lipoamide; [1],-0.097
same,thermal stability z-score,lipoamide; arsenate co-treatment: none,-0.749
same,thermal stability z-score,potassium arsenate,-0.0438
TOE1 (UniProt Q96GM8),thermal stability z-score,lipoamide; [1],0.165
same,thermal stability z-score,lipoamide; arsenate co-treatment: none,0.146
same,thermal stability z-score,potassium arsenate,-2.54
AHCY (UniProt P23526),thermal stability z-score,lipoamide; [1],0.488
same,thermal stability z-score,lipoamide; arsenate co-treatment: none,0.146
same,thermal stability z-score,potassium arsenate,-1.82
POLE3 (UniProt Q9NRF9),thermal stability z-score,lipoamide; [1],-0.405
same,thermal stability z-score,lipoamide; arsenate co-treatment: none,-0.285
same,thermal stability z-score,potassium arsenate,0.375
METTL14 (UniProt Q9HCE5),thermal stability z-score,lipoamide; [1],0.355
same,thermal stability z-score,lipoamide; arsenate co-treatment: none,-0.836
same,thermal stability z-score,potassium arsenate,-0.164
WDR62 (UniProt O43379),thermal stability z-score,lipoamide; [1],-0.259
same,thermal stability z-score,lipoamide; arsenate co-treatment: none,-0.153
same,thermal stability z-score,potassium arsenate,-0.0901
TES (UniProt Q9UGI8),thermal stability z-score,lipoamide; [1],0.0136
same,thermal stability z-score,lipoamide; arsenate co-treatment: none,-0.287
same,thermal stability z-score,potassium arsenate,-4.89
SEC14L1 (UniProt Q92503),thermal stability z-score,lipoamide; [1],-0.149
same,thermal stability z-score,lipoamide; arsenate co-treatment: none,-0.0215
same,thermal stability z-score,potassium arsenate,-0.169
MORF4L1 (UniProt Q9UBU8),thermal stability z-score,lipoamide; [1],-0.486
same,thermal stability z-score,lipoamide; arsenate co-treatment: none,0.0693
same,thermal stability z-score,potassium arsenate,0.343
LMNB1 (UniProt P20700),thermal stability z-score,lipoamide; [1],2.11
same,thermal stability z-score,lipoamide; arsenate co-treatment: none,-0.38
same,thermal stability z-score,potassium arsenate,0.742
SYNRG (UniProt Q9UMZ2),thermal stability z-score,lipoamide; [1],-0.398
same,thermal stability z-score,lipoamide; arsenate co-treatment: none,-0.18
same,thermal stability z-score,potassium arsenate,0.478
RNF25 (UniProt Q96BH1),thermal stability z-score,lipoamide; [1],-0.412
same,thermal stability z-score,lipoamide; arsenate co-treatment: none,-0.217
same,thermal stability z-score,potassium arsenate,-1.12
BCAP31 (UniProt P51572),thermal stability z-score,lipoamide; [1],0.0788
same,thermal stability z-score,lipoamide; arsenate co-treatment: none,0.099
same,thermal stability z-score,potassium arsenate,-0.144
ENY2 (UniProt Q9NPA8),thermal stability z-score,lipoamide; [1],0.894
same,thermal stability z-score,lipoamide; arsenate co-treatment: none,0.42
same,thermal stability z-score,potassium arsenate,0.181
SLC7A5 (UniProt Q01650),thermal stability z-score,lipoamide; [1],1.39
same,thermal stability z-score,lipoamide; arsenate co-treatment: none,1.19
same,thermal stability z-score,potassium arsenate,1.47
EPS8L2 (UniProt Q9H6S3),thermal stability z-score,lipoamide; [1],0.124
same,thermal stability z-score,lipoamide; arsenate co-treatment: none,0.0219
same,thermal stability z-score,potassium arsenate,1.1
PI4KA (UniProt P42356),thermal stability z-score,lipoamide; [1],-0.343
same,thermal stability z-score,lipoamide; arsenate co-treatment: none,-0.333
same,thermal stability z-score,potassium arsenate,-0.732
NCOA3 (UniProt Q9Y6Q9),thermal stability z-score,lipoamide; [1],-0.0145
same,thermal stability z-score,lipoamide; arsenate co-treatment: none,0.0505
same,thermal stability z-score,potassium arsenate,-0.26
USP15 (UniProt Q9Y4E8),thermal stability z-score,lipoamide; [1],0.00184
same,thermal stability z-score,lipoamide; arsenate co-treatment: none,-0.0791
same,thermal stability z-score,potassium arsenate,0.014
TTC9C (UniProt Q8N5M4),thermal stability z-score,lipoamide; [1],-0.988
same,thermal stability z-score,lipoamide; arsenate co-treatment: none,-0.401
same,thermal stability z-score,potassium arsenate,-0.649
BIRC6 (UniProt Q9NR09),thermal stability z-score,lipoamide; [1],-0.51
same,thermal stability z-score,lipoamide; arsenate co-treatment: none,-0.149
same,thermal stability z-score,potassium arsenate,0.194
NCOA5 (UniProt Q9HCD5),thermal stability z-score,lipoamide; [1],1.91
same,thermal stability z-score,lipoamide; arsenate co-treatment: none,0.857
same,thermal stability z-score,potassium arsenate,1.05
GBF1 (UniProt Q92538),thermal stability z-score,lipoamide; [1],-0.598
same,thermal stability z-score,lipoamide; arsenate co-treatment: none,-0.0839
same,thermal stability z-score,potassium arsenate,0.452
KHDRBS1 (UniProt Q07666),thermal stability z-score,lipoamide; [1],-0.091
same,thermal stability z-score,lipoamide; arsenate co-treatment: none,0.104
same,thermal stability z-score,potassium arsenate,-1.16
THEM4 (UniProt Q5T1C6),thermal stability z-score,lipoamide; [1],-0.175
same,thermal stability z-score,lipoamide; arsenate co-treatment: none,-0.235
same,thermal stability z-score,potassium arsenate,-0.626
ZMIZ2 (UniProt Q8NF64),thermal stability z-score,lipoamide; [1],-0.177
same,thermal stability z-score,lipoamide; arsenate co-treatment: none,-0.321
same,thermal stability z-score,potassium arsenate,-0.482
